Patent US20230407243A1, “GENETIC PLATFORM TO INVESTIGATE THE FUNCTIONS OF BACTERIAL DRUG EFFLUX PUMPS” (priority 2022, published 2023)
In brackets after ≈: the same amount, converted by molar mass.

Assays:
Assay type in all cases: cell-based, Escherichia coli
[1] = tested on: EKO-35 strains with integrated RND tripartite efflux pumps (AcrB, AcrEF, AcrD, and MdtEF) with pGDP2:emrE or empty pGDP-2; assay: Efflux pump interplay MIC profiling (pGDP2:emrE); conditions: for MIC / Fold Change from EKO-35 / Interplay effect: Pore −
[2] = tested on: EKO-35-Pore strains with integrated AcrB, AcrEF, AcrD, MdtEF with pGDP2:emrE or empty pGDP-2; assay: Efflux pump interplay MIC profiling (pGDP2:emrE), porinated; conditions: for MIC / Fold Change from EKO-35 / Interplay effect: Pore +
Source text: This plasmid enables single-copy genomic integration of a selected gene through integration into the nonessential araC gene within the arabinose operon (Cox, G. et al., 2022). All E. coli genes were amplified from E. coli BW25113 genomic DNA, and mexCD was amplified from P. aeruginosa PAO1, using a high-fidelity polymerase, followed by ligation into pINT2. Successful clones were verified using PCR (Primers: pLac-Fwd/pINT-Rev, Table 4) and confirmed via Sanger sequencing at The Centre for Applied Genomics (TCAG) (The Hospital for Sick Children) and the AAC (University of Guelph). For the interplay studies, this process was repeated using the pGDP2 plasmid (Cox, G. et al., 2022).
To enable comparison between efflux production in different genetic backgrounds, each efflux pump-encoding gene was also integrated into the genome of the wild-type BW25113 strain, the single gene deletion mutant from the Keio Collection, and EKO-35. Strains of interest were propagated on LB agar at 37° C. Cell inoculum was prepared using the colony resuspension method and applied to a 96-well well plate (VWR) in technical duplicate, and the minimum inhibitory concentrations were determined according to Clinical & Laboratory Standards Institute (CLSI) protocols in MHB II (Patel J. B. et al, 2015). The plates were incubated for 18 h (Multitron Shaker, Infors HT) at 37° C. with aeration at 900 rpm. The plates were equilibrated to room temperature before the OD600 nm was measured using a BioTek Synergy H1 microplate reader. For interplay profiling, blank subtracted OD600 nm values >0.1 were considered to represent growth.
To investigate, the EKO-35-Pore strains were profiled using the same approach.

[3] = tested on: EKO-35 porinated strain expressing acrD; assay: Checkerboard synergy (FICI), porinated strain; conditions: acrD expressed in the porinated strain
Outline: (§1)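 Inocula prepared from resuspended colonies were exposed to PAβN or NMP combined with antibiotics in MHB II checkerboards. Growth was scored by OD600 to define MICs. FICI then classified the interaction, with values under 0.5 counted as synergistic.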

[4] = tested on: EKO-35 porinated strain expressing acrF (AcrEF); assay: Checkerboard synergy (FICI), porinated strain
Outline: as §1

[5] = tested on: EKO-35-Pore strains producing other efflux pumps; assay: Checkerboard synergy (FICI), porinated strain
Outline: as §1

[6] = EKO-35 acrEF Pore, NMP + antibiotic
[7] = EKO-35 acrEF Pore, PAβN + antibiotic
[8] = strain EKO-35 acrEF Pore, NMP + antibiotic
[9] = EKO-35 mdtEF Pore, PAβN + antibiotic

Compound: CN(C)c1ccc(O)c2c1C[C@H]1C[C@H]3[C@H](N(C)C)C(O)=C(C(N)=O)C(=O)[C@@]3(O)C(O)=C1C2=O [minocycline]
- MIC ([1]; strain EKO-35): 1.25 µg/mL (≈ 2.73 µM)
- Fold Change from EKO-35 ([1]; strain EKO-35 pEmrE): 1
- MIC ([1]; strain EKO-35 pEmrE): 1.25 µg/mL (≈ 2.73 µM)
- Fold Change from EKO-35 ([1]; strain acrB pEmrE): 4
- MIC ([1]; strain acrB pEmrE): 5 µg/mL (≈ 10.9 µM)
- Fold Change from EKO-35 ([1]; strain acrB): 4
- MIC ([1]; strain acrB): 5 µg/mL (≈ 10.9 µM)
- Fold Change from EKO-35 ([1]; strain acrD pEmrE): 2
- MIC ([1]; strain acrD pEmrE): 2.5 µg/mL (≈ 5.46 µM)
- Fold Change from EKO-35 ([1]; strain acrD): 2
- MIC ([1]; strain acrD): 2.5 µg/mL (≈ 5.46 µM)
- Fold Change from EKO-35 ([1]; strain acrEF pEmrE): 4
- MIC ([1]; strain acrEF pEmrE): 5 µg/mL (≈ 10.9 µM)
- Fold Change from EKO-35 ([1]; strain acrEF): 2
- MIC ([1]; strain acrEF): 2.5 µg/mL (≈ 5.46 µM)
- Fold Change from EKO-35 ([1]; strain mdtEF pEmrE): 2
- MIC ([1]; strain mdtEF pEmrE): 2.5 µg/mL (≈ 5.46 µM)
- Fold Change from EKO-35 ([1]; strain mdtEF): 2
- MIC ([1]; strain mdtEF): 2.5 µg/mL (≈ 5.46 µM)
- MIC ([2]; strain EKO-35): 0.63 µg/mL
- Fold Change from EKO-35 ([2]; strain EKO-35 pEmrE): 1
- MIC ([2]; strain EKO-35 pEmrE): 0.63 µg/mL
- Fold Change from EKO-35 ([2]; strain acrB pEmrE): 4
- MIC ([2]; strain acrB pEmrE): 2.5 µg/mL
- Fold Change from EKO-35 ([2]; strain acrB): 4
- MIC ([2]; strain acrB): 2.5 µg/mL
- Fold Change from EKO-35 ([2]; strain acrD pEmrE): 2
- Fold Change from EKO-35 ([2]; strain acrD): 2
- Fold Change from EKO-35 ([2]; strain acrEF pEmrE): 2
- Fold Change from EKO-35 ([2]; strain acrEF): 2
- Fold Change from EKO-35 ([2]; strain mdtEF pEmrE): 2
- Fold Change from EKO-35 ([2]; strain mdtEF): 2

Compound: CC[C@H]1OC(=O)[C@H](C)[C@@H](O[C@H]2C[C@@](C)(OC)[C@@H](O)[C@H](C)O2)[C@H](C)[C@@H](O[C@@H]2O[C@H](C)C[C@H](N(C)C)[C@H]2O)[C@](C)(O)C[C@@H](C)C(=O)[C@H](C)[C@@H](O)[C@]1(C)O [erythromycin]
- interaction of PAβN in combination with the labelled antibiotic (FICI) [3]: still observed
- Effect [4, 6]: Additive
- FICI [4, 6]: 0.750
- Effect [4, 7]: Synergistic
- FICI [4, 7]: 0.385
- MICb Alone ([4]; EKO-35 acrEF Pore, antibiotic alone (PAβN checkerboard)): 0.5 µg/mL
- MICb Combined ([4]; EKO-35 acrEF Pore, antibiotic in combination with PAβN): 0.13 µg/mL
- Effect [4, 8]: Additive (additive (FICI >0.5-1.0))
- FICI [4, 8]: 0.750
- MICb Alone ([4]; strain EKO-35 acrEF Pore, antibiotic alone): 1 µg/mL
- MICb Combined ([4]; strain EKO-35 acrEF Pore, antibiotic in combination with NMP): 0.5 µg/mL
- Effect ([5]; EKO-35 mdtEF Pore, NMP + antibiotic): Additive
- Effect [5, 9]: Synergistic
- FICI [5, 9]: 0.185
- MICb Alone ([5]; EKO-35 mdtEF Pore, antibiotic alone (PAβN checkerboard)): 1 µg/mL
- MICb Combined ([5]; EKO-35 mdtEF Pore, antibiotic in combination with PAβN): 0.06 µg/mL
- Effect ([5]; strain EKO-35 mdtEF Pore, NMP + antibiotic): Additive (additive (FICI >0.5-1.0))
- MICb Alone ([5]; strain EKO-35 mdtEF Pore, antibiotic alone): 8 µg/mL
- MICb Combined ([5]; strain EKO-35 mdtEF Pore, antibiotic in combination with NMP): 1 µg/mL

Compound: C[n+]1c2cc(N)ccc2cc2ccc(N)cc21.[Cl-] [acriflavine]
- interplay of EmrE with tripartite efflux pumps on resistance ([1]; EKO-35, AcrB, AcrEF, AcrD, MdtEF combined with pEmrE): multiplicative effects
- Interplay effect ([1]; acrB with pEmrE): Multiplicative
- Interplay effect ([1]; acrD with pEmrE): Multiplicative
- Interplay effect ([1]; acrEF with pEmrE): Multiplicative
- Interplay effect ([1]; mdtEF with pEmrE): Multiplicative
- MIC ([1]; strain EKO-35): 0.098 µg/mL
- Fold Change from EKO-35 ([1]; strain EKO-35 pEmrE): 8
- MIC ([1]; strain EKO-35 pEmrE): 0.781 µg/mL
- Fold Change from EKO-35 ([1]; strain acrB pEmrE): 256
- MIC ([1]; strain acrB pEmrE): 25 µg/mL
- Fold Change from EKO-35 ([1]; strain acrB): 16
- MIC ([1]; strain acrB): 1.56 µg/mL
- Fold Change from EKO-35 ([1]; strain acrD pEmrE): 16
- MIC ([1]; strain acrD pEmrE): 1.56 µg/mL
- Fold Change from EKO-35 ([1]; strain acrD): 1
- MIC ([1]; strain acrD): 0.098 µg/mL
- Fold Change from EKO-35 ([1]; strain acrEF pEmrE): 128
- MIC ([1]; strain acrEF pEmrE): 12.5 µg/mL
- Fold Change from EKO-35 ([1]; strain acrEF): 8
- MIC ([1]; strain acrEF): 0.781 µg/mL
- Fold Change from EKO-35 ([1]; strain mdtEF pEmrE): 16
- MIC ([1]; strain mdtEF pEmrE): 1.56 µg/mL
- Fold Change from EKO-35 ([1]; strain mdtEF): 1
- MIC ([1]; strain mdtEF): 0.098 µg/mL
- resistance conferred by AcrD alone or in combination with EmrE ([2]; EKO-35-Pore): did not increase resistance
- interplay of EmrE with tripartite efflux pumps on resistance ([2]; EKO-35-Pore, AcrB, AcrEF, AcrD, MdtEF combined with pEmrE): Interplay was maintained
- interplay of EmrE with AcrD on resistance ([2]; EKO-35-Pore, AcrD with EmrE): multiplicative effect was lost
- Interplay effect ([2]; acrB with pEmrE): Multiplicative
- Interplay effect ([2]; acrEF with pEmrE): Multiplicative
- Interplay effect ([2]; mdtEF with pEmrE): Multiplicative
- MIC ([2]; strain EKO-35): 0.049 µg/mL
- Fold Change from EKO-35 ([2]; strain EKO-35 pEmrE): 16
- MIC ([2]; strain EKO-35 pEmrE): 0.781 µg/mL
- Fold Change from EKO-35 ([2]; strain acrB pEmrE): 256
- MIC ([2]; strain acrB pEmrE): 12.5 µg/mL
- Fold Change from EKO-35 ([2]; strain acrB): 16
- MIC ([2]; strain acrB): 0.781 µg/mL
- Fold Change from EKO-35 ([2]; strain acrD pEmrE): 16
- MIC ([2]; strain acrD pEmrE): 0.781 µg/mL
- Fold Change from EKO-35 ([2]; strain acrD): 2
- MIC ([2]; strain acrD): 0.098 µg/mL
- Fold Change from EKO-35 ([2]; strain acrEF pEmrE): 128
- MIC ([2]; strain acrEF pEmrE): 6.25 µg/mL
- Fold Change from EKO-35 ([2]; strain acrEF): 16
- MIC ([2]; strain acrEF): 0.781 µg/mL
- Fold Change from EKO-35 ([2]; strain mdtEF pEmrE): 32
- MIC ([2]; strain mdtEF pEmrE): 1.56 µg/mL
- Fold Change from EKO-35 ([2]; strain mdtEF): 4
- MIC ([2]; strain mdtEF): 0.195 µg/mL
